# Measurements taken from ChEMBL document CHEMBL4507317, “Data for DCP probe BAY-899” (2021).
# Legend:
# [1] = test system: Proto-oncogene tyrosine-protein kinase receptor Ret (Homo sapiens), P07949 [V804L]; conditions: Compound concentration 1000.0 nM
# [2] = target: Kappa-type opioid receptor (Homo sapiens, UniProt P41145); conditions: Compound concentration 10.0 uM
# [3] = test system: Epidermal growth factor receptor (Homo sapiens), P00533 [G719S]; conditions: Compound concentration 1000.0 nM
# [4] = target: Cyclin-dependent kinase-like 2 (Homo sapiens) (UniProt Q92772); conditions: Compound concentration 1000.0 nM
# [5] = test system: Tyrosine-protein kinase ABL1 (Homo sapiens), P00519 [Y253F]; conditions: Compound concentration 1000.0 nM
# [6] = target: Calcium/calmodulin-dependent protein kinase type 1 (Homo sapiens) (UniProt Q14012); conditions: Compound concentration 1000.0 nM
# [7] = target: Mast/stem cell growth factor receptor Kit (Homo sapiens) (UniProt P10721); conditions: Compound concentration 1000.0 nM
# [8] = test system: Tyrosine-protein kinase ABL1 (Homo sapiens), P00519 [F317L]; conditions: Compound concentration 1000.0 nM
# [9] = target: Tyrosine-protein kinase JAK1 (Homo sapiens) (UniProt P23458); conditions: Compound concentration 1000.0 nM
# [10] = target: Cyclin-dependent kinase 3 (Homo sapiens) (UniProt Q00526); conditions: Compound concentration 1000.0 nM
# [11] = target: Alpha-2B adrenergic receptor (Homo sapiens) (UniProt P18089); conditions: Compound concentration 10.0 uM
# [12] = test system: Receptor-type tyrosine-protein kinase FLT3 (Homo sapiens), P36888 [UNDEFINED MUTATION]; conditions: Compound concentration 1000.0 nM
# [13] = test system: Receptor-type tyrosine-protein kinase FLT3 (Homo sapiens), P36888 [UNDEFINED MUTATION]; conditions: Compound concentration 1000.0 nM; remark: listed apart in the source
# [14] = test system: Fibroblast growth factor receptor 3 (Homo sapiens), P22607 [G697C]; conditions: Compound concentration 1000.0 nM
# [15] = test system: Receptor-type tyrosine-protein kinase FLT3 (Homo sapiens), P36888 [UNDEFINED MUTATION]; conditions: Compound concentration 1000.0 nM; remark: listed apart in the source
# [16] = target: Mitogen-activated protein kinase kinase kinase 6 (Homo sapiens) (UniProt O95382); conditions: Compound concentration 1000.0 nM
# [17] = target: High affinity nerve growth factor receptor (Homo sapiens) (UniProt P04629); conditions: Compound concentration 1000.0 nM
# [18] = target: Serine/threonine-protein kinase pim-1 (Homo sapiens) (UniProt P11309); conditions: Compound concentration 1000.0 nM
# [19] = target: Protein kinase C epsilon type (Homo sapiens) (UniProt Q02156); conditions: Compound concentration 1000.0 nM
# [20] = target: Dual specificity tyrosine-phosphorylation-regulated kinase 2 (Homo sapiens) (UniProt Q92630); conditions: Compound concentration 1000.0 nM
# [21] = target: Proto-oncogene tyrosine-protein kinase Src (Homo sapiens) (UniProt P12931); conditions: Compound concentration 1000.0 nM
# [22] = target: Bone morphogenetic protein receptor type-1A (Homo sapiens) (UniProt P36894); conditions: Compound concentration 1000.0 nM
# [23] = target: Dual specificity protein kinase CLK3 (Homo sapiens) (UniProt P49761); conditions: Compound concentration 1000.0 nM
# [24] = target: NT-3 growth factor receptor (Homo sapiens) (UniProt Q16288); conditions: Compound concentration 1000.0 nM
# [25] = target: Serine/threonine-protein kinase PAK 5 (Homo sapiens) (UniProt Q9P286); conditions: Compound concentration 1000.0 nM
# [26] = target: Serine/threonine-protein kinase MARK1 (Homo sapiens) (UniProt Q9P0L2); conditions: Compound concentration 1000.0 nM
# [27] = target: Serine/threonine-protein kinase 33 (Homo sapiens) (UniProt Q9BYT3); conditions: Compound concentration 1000.0 nM
# [28] = target: Mitogen-activated protein kinase 9 (Homo sapiens) (UniProt P45984); conditions: Compound concentration 1000.0 nM
# [29] = target: Atypical kinase COQ8A, mitochondrial (Homo sapiens) (UniProt Q8NI60); conditions: Compound concentration 1000.0 nM
# [30] = target: Serine/threonine-protein kinase tousled-like 1 (Homo sapiens) (UniProt Q9UKI8); conditions: Compound concentration 1000.0 nM
# [31] = test system: Tyrosine-protein kinase ABL1 (Homo sapiens), P00519 [M351T]; conditions: Compound concentration 1000.0 nM
# [32] = target: Beta-1 adrenergic receptor (Homo sapiens) (UniProt P08588); conditions: Compound concentration 10.0 uM
# [33] = test system: Phosphatidylinositol 4,5-bisphosphate 3-kinase catalytic subunit alpha isoform (Homo sapiens), P42336 [E545A]; conditions: Compound concentration 1000.0 nM
# [34] = target: Platelet-derived growth factor receptor beta (Homo sapiens) (UniProt P09619); conditions: Compound concentration 1000.0 nM
# [35] = target: Tyrosine-protein kinase JAK1 (Homo sapiens) (UniProt P23458); conditions: Compound concentration 1000.0 nM; remark: listed apart in the source
# [36] = target: Phosphorylase b kinase regulatory subunit alpha, liver isoform (Homo sapiens) (UniProt P46019); conditions: Compound concentration 1000.0 nM
# [37] = target: Macrophage colony-stimulating factor 1 receptor (Homo sapiens) (UniProt P07333); conditions: Compound concentration 1000.0 nM
# [38] = target: cAMP-dependent protein kinase catalytic subunit alpha (Homo sapiens) (UniProt P17612); conditions: Compound concentration 1000.0 nM
# [39] = target: Calcium/calmodulin-dependent protein kinase type II subunit delta (Homo sapiens) (UniProt Q13557); conditions: Compound concentration 1000.0 nM
# [40] = target: Serine/threonine-protein kinase PAK 1 (Homo sapiens) (UniProt Q13153); conditions: Compound concentration 1000.0 nM
# [41] = target: Protein kinase C iota type (Homo sapiens) (UniProt P41743); conditions: Compound concentration 1000.0 nM
# [42] = target: Wee1-like protein kinase 2 (Homo sapiens) (UniProt P0C1S8); conditions: Compound concentration 1000.0 nM
# [43] = target: Bone morphogenetic protein receptor type-1B (Homo sapiens) (UniProt O00238); conditions: Compound concentration 1000.0 nM
# [44] = target: Mitogen-activated protein kinase kinase kinase 3 (Homo sapiens) (UniProt Q99759); conditions: Compound concentration 1000.0 nM
# Receptor-type tyrosine-protein kinase FLT3 (Homo sapiens), P36888 [UNDEFINED MUTATION], sequence (P36888 whole entry, looked up, stated change not applied): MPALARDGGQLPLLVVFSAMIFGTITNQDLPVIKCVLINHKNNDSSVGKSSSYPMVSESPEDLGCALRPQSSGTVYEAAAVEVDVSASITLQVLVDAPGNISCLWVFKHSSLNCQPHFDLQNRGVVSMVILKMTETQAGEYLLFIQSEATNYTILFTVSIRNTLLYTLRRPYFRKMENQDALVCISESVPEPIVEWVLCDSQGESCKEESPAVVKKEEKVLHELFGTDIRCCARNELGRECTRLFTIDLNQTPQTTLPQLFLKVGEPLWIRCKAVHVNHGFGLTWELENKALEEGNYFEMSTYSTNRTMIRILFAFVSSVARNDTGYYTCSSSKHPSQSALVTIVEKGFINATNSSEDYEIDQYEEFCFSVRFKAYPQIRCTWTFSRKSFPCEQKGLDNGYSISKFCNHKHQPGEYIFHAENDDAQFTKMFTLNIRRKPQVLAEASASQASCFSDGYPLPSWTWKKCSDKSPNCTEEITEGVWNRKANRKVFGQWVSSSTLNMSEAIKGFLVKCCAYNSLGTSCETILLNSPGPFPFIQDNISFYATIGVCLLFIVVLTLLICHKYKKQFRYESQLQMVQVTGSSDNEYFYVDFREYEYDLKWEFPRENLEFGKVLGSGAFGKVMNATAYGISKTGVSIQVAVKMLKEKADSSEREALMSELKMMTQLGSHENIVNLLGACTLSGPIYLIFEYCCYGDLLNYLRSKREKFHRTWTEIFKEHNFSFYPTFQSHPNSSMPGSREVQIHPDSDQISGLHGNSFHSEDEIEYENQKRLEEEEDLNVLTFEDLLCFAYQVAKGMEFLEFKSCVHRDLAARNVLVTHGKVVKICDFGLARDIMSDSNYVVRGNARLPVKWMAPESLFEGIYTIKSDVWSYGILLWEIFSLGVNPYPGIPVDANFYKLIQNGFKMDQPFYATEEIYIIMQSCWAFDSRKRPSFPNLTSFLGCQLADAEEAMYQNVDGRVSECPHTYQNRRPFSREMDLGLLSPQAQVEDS
# Tyrosine-protein kinase JAK1 (Homo sapiens), sequence (P23458 whole entry, canonical isoform): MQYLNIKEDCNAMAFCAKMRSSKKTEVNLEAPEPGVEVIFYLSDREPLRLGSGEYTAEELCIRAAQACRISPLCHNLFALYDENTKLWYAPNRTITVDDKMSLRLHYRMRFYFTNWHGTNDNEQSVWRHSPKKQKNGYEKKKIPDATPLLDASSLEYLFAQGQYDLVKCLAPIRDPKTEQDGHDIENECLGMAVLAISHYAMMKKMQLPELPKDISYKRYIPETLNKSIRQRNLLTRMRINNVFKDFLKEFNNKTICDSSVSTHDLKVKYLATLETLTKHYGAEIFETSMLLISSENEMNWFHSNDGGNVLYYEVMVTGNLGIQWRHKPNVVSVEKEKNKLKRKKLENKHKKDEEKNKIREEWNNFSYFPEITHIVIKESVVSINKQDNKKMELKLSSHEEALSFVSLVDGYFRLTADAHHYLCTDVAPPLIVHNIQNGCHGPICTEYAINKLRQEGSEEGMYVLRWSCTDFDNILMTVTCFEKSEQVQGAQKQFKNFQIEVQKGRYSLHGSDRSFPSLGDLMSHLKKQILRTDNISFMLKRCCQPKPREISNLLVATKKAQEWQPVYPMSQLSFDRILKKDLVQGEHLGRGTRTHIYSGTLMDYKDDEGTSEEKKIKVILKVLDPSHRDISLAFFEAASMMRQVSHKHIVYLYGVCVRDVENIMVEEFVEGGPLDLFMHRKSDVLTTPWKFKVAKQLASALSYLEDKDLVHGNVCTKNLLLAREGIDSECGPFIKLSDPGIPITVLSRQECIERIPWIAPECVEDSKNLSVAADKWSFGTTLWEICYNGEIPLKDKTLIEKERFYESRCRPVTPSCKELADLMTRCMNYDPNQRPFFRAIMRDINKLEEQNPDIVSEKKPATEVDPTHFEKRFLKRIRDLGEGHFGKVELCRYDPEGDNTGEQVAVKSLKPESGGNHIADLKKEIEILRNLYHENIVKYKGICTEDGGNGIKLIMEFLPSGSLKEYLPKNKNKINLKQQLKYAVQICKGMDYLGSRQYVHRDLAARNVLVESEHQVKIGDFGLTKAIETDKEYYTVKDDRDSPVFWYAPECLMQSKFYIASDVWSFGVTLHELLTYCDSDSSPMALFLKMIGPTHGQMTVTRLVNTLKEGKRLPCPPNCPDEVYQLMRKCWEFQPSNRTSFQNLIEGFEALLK
# Serine/threonine-protein kinase tousled-like 1 (Homo sapiens), sequence (Q9UKI8 whole entry): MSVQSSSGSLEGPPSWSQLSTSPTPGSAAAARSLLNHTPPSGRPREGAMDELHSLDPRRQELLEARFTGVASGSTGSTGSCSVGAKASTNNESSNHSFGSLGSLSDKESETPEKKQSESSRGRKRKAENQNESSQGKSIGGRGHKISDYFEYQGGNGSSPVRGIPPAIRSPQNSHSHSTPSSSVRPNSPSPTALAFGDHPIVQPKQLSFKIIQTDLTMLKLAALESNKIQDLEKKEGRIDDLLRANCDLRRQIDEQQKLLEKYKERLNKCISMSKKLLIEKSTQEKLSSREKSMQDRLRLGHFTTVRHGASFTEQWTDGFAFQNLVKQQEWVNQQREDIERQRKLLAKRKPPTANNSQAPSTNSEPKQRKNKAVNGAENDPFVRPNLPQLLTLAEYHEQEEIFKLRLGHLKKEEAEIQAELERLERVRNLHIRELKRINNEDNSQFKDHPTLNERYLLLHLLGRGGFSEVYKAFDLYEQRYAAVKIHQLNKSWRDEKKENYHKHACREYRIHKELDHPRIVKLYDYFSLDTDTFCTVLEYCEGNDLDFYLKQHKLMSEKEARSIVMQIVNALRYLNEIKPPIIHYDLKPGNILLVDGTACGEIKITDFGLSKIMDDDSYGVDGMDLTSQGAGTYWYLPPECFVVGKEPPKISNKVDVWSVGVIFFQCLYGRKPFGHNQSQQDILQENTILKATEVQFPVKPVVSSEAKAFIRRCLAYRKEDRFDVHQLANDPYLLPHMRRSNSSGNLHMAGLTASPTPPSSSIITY
# Proto-oncogene tyrosine-protein kinase Src (Homo sapiens), sequence (P12931 2-536 limits assumed): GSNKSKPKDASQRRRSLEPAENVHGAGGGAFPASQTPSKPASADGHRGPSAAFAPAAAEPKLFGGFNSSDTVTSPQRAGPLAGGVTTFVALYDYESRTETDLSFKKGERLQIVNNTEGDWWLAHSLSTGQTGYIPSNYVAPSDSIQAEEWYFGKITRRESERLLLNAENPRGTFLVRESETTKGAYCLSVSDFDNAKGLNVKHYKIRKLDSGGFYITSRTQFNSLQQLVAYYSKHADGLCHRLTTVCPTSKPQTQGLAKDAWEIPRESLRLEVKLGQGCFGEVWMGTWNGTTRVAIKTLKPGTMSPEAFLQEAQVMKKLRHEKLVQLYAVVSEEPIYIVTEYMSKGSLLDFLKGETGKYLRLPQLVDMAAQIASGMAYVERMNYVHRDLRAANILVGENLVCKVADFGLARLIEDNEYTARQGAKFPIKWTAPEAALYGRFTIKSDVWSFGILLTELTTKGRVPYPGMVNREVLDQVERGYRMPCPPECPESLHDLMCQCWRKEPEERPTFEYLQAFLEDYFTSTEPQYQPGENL
# Calcium/calmodulin-dependent protein kinase type 1 (Homo sapiens), sequence (Q14012 whole entry, looked up): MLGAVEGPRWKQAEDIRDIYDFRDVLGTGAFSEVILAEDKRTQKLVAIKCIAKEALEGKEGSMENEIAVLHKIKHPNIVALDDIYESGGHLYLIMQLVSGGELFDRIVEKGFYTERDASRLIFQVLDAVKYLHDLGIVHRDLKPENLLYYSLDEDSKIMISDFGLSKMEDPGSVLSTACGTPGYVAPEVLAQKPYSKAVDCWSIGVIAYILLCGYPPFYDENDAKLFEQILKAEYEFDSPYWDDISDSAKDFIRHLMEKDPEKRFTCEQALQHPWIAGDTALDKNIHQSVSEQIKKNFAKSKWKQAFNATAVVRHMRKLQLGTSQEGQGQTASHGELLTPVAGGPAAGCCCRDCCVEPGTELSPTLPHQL
# Dual specificity tyrosine-phosphorylation-regulated kinase 2 (Homo sapiens), sequence (Q92630 whole entry): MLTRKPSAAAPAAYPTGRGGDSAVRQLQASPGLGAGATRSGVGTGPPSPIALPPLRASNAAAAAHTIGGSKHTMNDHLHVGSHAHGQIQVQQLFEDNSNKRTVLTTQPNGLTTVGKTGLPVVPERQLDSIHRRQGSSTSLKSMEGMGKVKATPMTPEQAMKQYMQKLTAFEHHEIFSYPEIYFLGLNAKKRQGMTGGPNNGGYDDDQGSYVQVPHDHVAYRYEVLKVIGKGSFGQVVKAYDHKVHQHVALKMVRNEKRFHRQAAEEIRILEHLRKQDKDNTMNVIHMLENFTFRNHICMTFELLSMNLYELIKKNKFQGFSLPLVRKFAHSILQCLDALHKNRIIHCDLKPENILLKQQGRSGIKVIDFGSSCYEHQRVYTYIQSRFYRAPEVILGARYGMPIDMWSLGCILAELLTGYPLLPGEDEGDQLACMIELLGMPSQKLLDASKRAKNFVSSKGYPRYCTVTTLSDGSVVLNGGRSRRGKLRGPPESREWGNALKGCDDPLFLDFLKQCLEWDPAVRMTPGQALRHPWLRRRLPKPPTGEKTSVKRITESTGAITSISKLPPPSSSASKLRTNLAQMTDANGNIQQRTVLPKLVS
# Beta-1 adrenergic receptor (Homo sapiens), sequence (P08588 whole entry, looked up, canonical isoform): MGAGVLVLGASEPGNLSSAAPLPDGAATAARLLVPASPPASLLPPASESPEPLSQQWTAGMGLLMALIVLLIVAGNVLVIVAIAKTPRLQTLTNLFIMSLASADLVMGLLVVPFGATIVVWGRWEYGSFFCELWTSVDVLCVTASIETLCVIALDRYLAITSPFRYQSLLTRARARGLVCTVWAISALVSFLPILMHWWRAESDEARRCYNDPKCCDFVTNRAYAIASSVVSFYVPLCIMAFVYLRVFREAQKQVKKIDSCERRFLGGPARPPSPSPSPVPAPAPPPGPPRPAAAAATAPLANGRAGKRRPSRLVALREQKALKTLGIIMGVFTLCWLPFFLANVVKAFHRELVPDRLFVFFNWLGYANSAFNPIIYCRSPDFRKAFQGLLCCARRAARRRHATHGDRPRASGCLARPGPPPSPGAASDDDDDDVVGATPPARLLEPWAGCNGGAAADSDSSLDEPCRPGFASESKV
structure (smiles),measurement,setting,value
O=C(Nc1ccc(Oc2ccc(F)cc2)cc1)N1CCc2ncccc2[C@H]1c1ccc(F)cc1 [BAY-897],residual activity,[1],95%
same,inhibition,[2],79.3%
same,residual activity,[3],74%
same,residual activity,[4],77%
same,residual activity,[5],82%
same,residual activity,[6],70%
same,residual activity,[7],91%
same,residual activity,[8],70%
same,residual activity,[9],94%
same,residual activity,[10],93%
same,inhibition,[11],49.6%
same,residual activity,[12],99%
same,residual activity,[13],93%
same,residual activity,[14],100%
same,residual activity,[15],93%
same,residual activity,[16],100%
same,residual activity,[17],85%
same,residual activity,[18],99%
same,residual activity,[19],100%
same,residual activity,[20],84%
same,residual activity,[21],91%
same,residual activity,[22],100%
same,residual activity,[23],82%
same,residual activity,[24],68%
same,residual activity,[25],100%
same,residual activity,[26],81%
same,residual activity,[27],50%
same,residual activity,[28],88%
same,residual activity,[29],100%
same,residual activity,[30],100%
same,residual activity,[31],51%
same,inhibition,[32],-7.28%
same,residual activity,[33],100%
same,residual activity,[34],100%
same,residual activity,[35],100%
same,residual activity,[36],100%
same,residual activity,[37],90%
same,residual activity,[38],95%
same,residual activity,[39],89%
same,residual activity,[40],82%
same,residual activity,[41],100%
same,residual activity,[42],100%
same,residual activity,[43],87%
same,residual activity,[44],87%
O=C(Nc1cnc(Oc2ccc(F)cc2)nc1)N1CCc2ncccc2[C@@H]1c1ccc(F)cc1 [BAY-899],residual activity,[1],86%
same,inhibition,[2],56.3%
same,residual activity,[3],72%
same,residual activity,[4],33%
same,residual activity,[5],100%
same,residual activity,[6],73%
same,residual activity,[7],81%
same,residual activity,[8],81%
same,residual activity,[9],86%
same,residual activity,[10],89%
same,inhibition,[11],9.66%
same,residual activity,[12],92%
same,residual activity,[13],79%
same,residual activity,[14],89%
same,residual activity,[15],100%
same,residual activity,[16],94%
same,residual activity,[17],100%
same,residual activity,[18],91%
same,residual activity,[19],100%
same,residual activity,[20],81%
same,residual activity,[21],93%
same,residual activity,[22],100%
same,residual activity,[23],88%
same,residual activity,[24],75%
same,residual activity,[25],95%
same,residual activity,[26],71%
same,residual activity,[27],69%
same,residual activity,[28],85%
same,residual activity,[29],95%
same,residual activity,[30],90%
same,residual activity,[31],57%
same,inhibition,[32],11.3%
same,residual activity,[33],98%
same,residual activity,[34],100%
same,residual activity,[35],96%
same,residual activity,[36],96%
same,residual activity,[37],78%
same,residual activity,[38],82%
same,residual activity,[39],92%
same,residual activity,[40],71%
same,residual activity,[41],98%
same,residual activity,[42],95%
same,residual activity,[43],98%
same,residual activity,[44],97%
